Measured values: patent US9580390B2, “Indazole compounds as kinase inhibitors and method of treating cancer with same” (University Health Network, priority 2011, dated 2017)
Read-outs that look alike come from different tables or passages of the source.

How the values were obtained:
human TTK = target: T1, human TTK (Homo sapiens, UniProt P33981); assay: TTK inhibition assay (indirect ELISA); format: biochemical; details: read-out: TTK IC50 Range
T1 construct: amino terminal GST fusion of full length human TTK; purchased Invitrogen
T1 sequence (P33981 1-857): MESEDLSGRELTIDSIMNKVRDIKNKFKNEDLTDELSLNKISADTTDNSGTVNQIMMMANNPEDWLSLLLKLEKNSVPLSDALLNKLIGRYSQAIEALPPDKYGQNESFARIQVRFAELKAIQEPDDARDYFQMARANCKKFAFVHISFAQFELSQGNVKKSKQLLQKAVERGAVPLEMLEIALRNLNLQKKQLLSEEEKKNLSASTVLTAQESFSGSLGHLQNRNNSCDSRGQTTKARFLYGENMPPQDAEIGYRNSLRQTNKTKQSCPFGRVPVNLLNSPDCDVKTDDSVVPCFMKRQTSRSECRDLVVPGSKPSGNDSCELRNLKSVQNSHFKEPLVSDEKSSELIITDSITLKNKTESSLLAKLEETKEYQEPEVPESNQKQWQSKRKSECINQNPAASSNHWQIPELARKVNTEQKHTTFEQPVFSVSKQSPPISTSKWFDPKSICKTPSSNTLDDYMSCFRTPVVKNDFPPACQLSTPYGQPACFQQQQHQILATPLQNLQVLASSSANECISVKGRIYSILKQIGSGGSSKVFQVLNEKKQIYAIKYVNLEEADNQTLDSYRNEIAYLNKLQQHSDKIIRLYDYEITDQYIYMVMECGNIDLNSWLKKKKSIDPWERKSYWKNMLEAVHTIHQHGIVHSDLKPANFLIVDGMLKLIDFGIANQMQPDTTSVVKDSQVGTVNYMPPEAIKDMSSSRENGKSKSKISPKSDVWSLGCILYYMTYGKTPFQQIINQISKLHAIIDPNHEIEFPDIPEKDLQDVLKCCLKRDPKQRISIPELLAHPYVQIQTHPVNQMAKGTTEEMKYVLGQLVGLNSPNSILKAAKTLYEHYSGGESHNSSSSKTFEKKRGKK

Breast cancer cells = assay: Cancer cell line growth inhibition (SRB assay); format: cell-based; details: Homo sapiens; MDA-MB-468; read-out: Cancer Cell Line GI50 Range MDA-MB-468
[1] = test system: colon cancer cells (HCT116); assay: Cancer cell line growth inhibition (SRB assay); format: cell-based; details: Homo sapiens, HCT-116, read-out: Cancer Cell Line GI50 Range HCT116
[2] = test system: ovarian cancer cells (PA-1); assay: Cancer cell line growth inhibition (SRB assay); format: cell-based; details: read-out: Cancer Cell Line GI50 Range PA-1
Protocol: Breast cancer cells (MDA-MB-231), colon cancer cells (HCT116) and ovarian cancer cells (PA-1) were seeded (1000 to 4000 in 80 μl per well depending on the cell growth rate) into 96 well plates 24 hours before compound overlay. Compounds were prepared as 10 mM stock solutions in 100% DMSO which were diluted with DMEM (Dulbecco's Modified Eagle's Medium) cell growth Medium (Invitrogen, Burlington, ON, Canada) containing 10% FBS (Fetal Bovine Serum) to concentrations ranging from 50 nM to 250 μM. Aliquots (20 μl) from each concentration were overlaid to 80 μl of the pre-seeded cells in the 96 well plates to make final concentrations of 10 nM to 50 μM. The cells were cultured for 5 days before the Sulforhodamine B assay (SRB) was performed to determine the compound's cell growth inhibition activity.
Sulforhodamine B (purchased from Sigma, Oakville, ON, Canada) is a water-soluble dye that binds to the basic amino acids of the cellular proteins. Thus, colorimetric measurement of the bound dye provides an estimate of the total protein mass that is related to the cell number. the cells are fixed in situ by gently aspirating off the culture media and adding 50 μl ice cold 10% Trichloroacetic Acid (TCA) per well and incubate at 4° C. for 30-60 min. The plates are washed with H2O five times and allowed to air dry for 5 min. Addition of 50 μl 0.4% (w/v) SRB solution in 1% (v/v) acetic acid to each well and incubation for 30 min at RT completes the staining reaction. Following staining, plates are washed four times with 1% acetic acid to remove unbound dye and then allowed to air dry for 5 min. The stain is solubilized with 100 μl of 10 mM Tris pH 10.5 per well. Absorbance is read at 570 nm.
The percentage (%) of relative growth inhibition was calculated by comparing to DMSO treated only cells (100%). GI50's were determined for compounds with cytotoxic activity. The GI50 was calculated using GraphPad PRISM software (GraphPad Software, Inc., San Diego, Calif., USA).

| Structure (SMILES) | IC50 (human TTK) | GI50 (Breast cancer cells) | GI50 [1] | GI50 ([2]; Homo sapiens, PA-1) | GI50 ([1]; HCT116 colon cancer cells, SRB assay) | GI50 ([2]; PA-1 ovarian cancer cells, SRB assay) |
| --- | --- | --- | --- | --- | --- | --- |
| O=C(N[C@H](c1ccccn1)C1CC1)c1cc2c(-c3ccc(N4[C@@H]5CC[C@H]4COC5)cc3)n[nH]c2cc1F [Example A272, 3-(4-((1R,5S)-3-oxa-8-azabicyclo[3.2.1]octan-8-yl)phenyl)-N-((S)-cyclopropyl(pyridin-2-yl)methyl)-6-fluoro-1H-indazole-5-carboxamide] | < 100 nM | > 500 nM | 100 to 500 nM | 100 to 500 nM | – | – |
| Cc1cc(=O)n(C)c2ccc(-c3n[nH]c4ccc(C(=O)N[C@H](c5ccccn5)C5CC5)cc34)cc12 [Example A238] | < 100 nM | > 500 nM | 100 to 500 nM | 100 to 500 nM | – | – |
| O=C(N[C@H](c1ccsc1)C1CC1)c1ccc2[nH]nc(-c3ccc(OC4CCN(C[C@@H](O)C(F)(F)F)CC4)cc3)c2c1 [Example A223, N-((S)-cyclopropyl(thiophen-3-yl)methyl)-3-(4-((1-((R)-3,3,3-trifluoro-2-hydroxypropyl)piperidin-4-yl)oxy)phenyl)-1H-indazole-5-carboxamide] | < 100 nM | > 500 nM | 100 to 500 nM | 100 to 500 nM | – | – |
| O=C(N[C@H](c1ccsc1)C1CC1)c1ccc2[nH]nc(-c3ccc(N4C5CCC4CC(O)C5)cc3)c2c1 (stereo partly drawn) [Example A365, N-((S)-cyclopropyl(thiophen-3-yl)methyl)-3-(4-((1R,3S,5S)-3-hydroxy-8-azabicyclo[3.2.1]octan-8-yl)phenyl)-1H-indazole-5-carboxamide] | < 100 nM | < 100 nM | < 100 nM | < 100 nM | – | – |
| CN1CC2(CC(O)c3cc(-c4n[nH]c5ccc(C(=O)N[C@H](c6ccccc6)C6CC6)cc45)ccc3O2)C1 (stereo partly drawn) [Example A256, N-((S)-cyclopropyl(phenyl)methyl)-3-(4′-hydroxy-1-methylspiro(azetidine-3,2-chroman]-6′-yl)-1H-indazole-5-carboxamide] | 100 to 500 nM | > 500 nM | > 500 nM | > 500 nM | – | – |
| CC(C)C[C@H](NC(=O)c1ccc2[nH]nc(-c3ccc(N4C5CCC4COC5)cc3)c2c1)c1ccccc1Cl [Example A413, 3-(4-((1R,5S)-3-oxa-8-azabicyclo[3.2.1]octan-8-yl)phenyl)-N-((S)-(2-chlorophenyl)-3-methylbulyl)-1H-indazole-5-carboxamide] | < 100 nM | 100 to 500 nM | < 100 nM | < 100 nM | – | – |
| CN1CCC(Oc2ccc(-c3n[nH]c4ccc(C(=O)NC(c5ccccn5)C5CCCCC5)cc34)cc2)CC1 (centres unmarked) [Example A409, N-(cyclohexyl(pyridin-2-yl)methyl)-3-(4-((1-methylpiperidin-4-yl)oxy)phenyl)-1H-indazole-5-carboxamide] | < 100 nM | 100 to 500 nM | 100 to 500 nM | 100 to 500 nM | – | – |
| CN1[C@@H]2CC[C@H]1C[C@@H](Oc1ccc(-c3n[nH]c4ccc(C(=O)NC(c5ccccc5Cl)C5CCCC5)cc34)cc1)C2 (stereo partly drawn) [Example A284, N-((2-chlorophenyl)(cyclopentyl)methyl)-3-(4-(((1R,3R,5S)-8-methyl-8-azabicyclo[3.2.1]octan-3-yl)oxy)phenyl)-1H-indazole-5-carboxamide] | < 100 nM | 100 to 500 nM | 100 to 500 nM | 100 to 500 nM | – | – |
| O=C(NCC1(CN2CCOCC2)CCCCC1)c1ccc2[nH]nc(-c3ccc(N4CCOCC4)cc3)c2c1 [Example A509, N-((1-(morpholinomethyl)cyclohexyl)methyl)-3-(4-morpholinophenyl)-1H-indazole-5-carboxamide] | < 100 nM | > 500 nM | > 500 nM | > 500 nM | – | – |
| CC(C)(O)CN1CCC(Oc2ccc(-c3n[nH]c4ccc(C(=O)N[C@H](c5ccsc5)C5CC5)cc34)cc2)CC1 [Example A218, (S)-N-(cyclopropyl(thiophen-3-yl)methyl)-3-(4-((1-(2-hydroxy-2-methylpropyl)piperidin-4-yl)oxy)phenyl)-1H-indazole-5-carboxamide] | < 100 nM | 100 to 500 nM | 100 to 500 nM | 100 to 500 nM | – | – |
| O=C(NCC1(OC2CCCC2)CCCCC1)c1ccc2[nH]nc(-c3ccc(OC4CCN(C5COC5)CC4)cc3)c2c1 [Example A434, N-((1-(cyclopentyloxy)cyclohexyl)methyl)-3-(4-((1-(oxetan-3-yl)piperidin-4-yl)oxy)phenyl)-1H-indazole-5-carboxamide] | < 100 nM | > 500 nM | > 500 nM | > 500 nM | – | – |
| CN1CCC(CNC(=O)c2ccc3[nH]nc(-c4ccc(N5[C@@H]6CC[C@H]5COC6)cc4)c3c2)(c2ccccc2)CC1 [Example A468, 3-(4-((1R,5S)-3-oxa-8-azabicyclo[3.2.1]octan-8-yl)phenyl)-N-((1-methyl-4-phenylpiperidin-4-yl)methyl)-1H-indazole-5-carboxamide] | < 100 nM | > 500 nM | 100 to 500 nM | 100 to 500 nM | – | – |
| O=C(N[C@H](c1ccccn1)C1CC1)c1ccc2[nH]nc(-c3ccc4c(c3)C(=O)CCO4)c2c1 [Example A241] | < 100 nM | > 500 nM | > 500 nM | > 500 nM | – | – |
| CC(C)C(NC(=O)c1ccc2[nH]nc(-c3ccc(O[C@H]4C[C@H]5CC[C@@H](C4)N5C)cc3)c2c1)c1ccccc1F (stereo partly drawn) [Example A281, N-(1-(2-fluorophenyl)-2-methylpropyl)-3-(4-(((1R,3R,5S)-8-methyl-8-azabicyclo[3.2.1]octan-3-yl)oxy)phenyl)-1H-indazole-5-carboxamide] | < 100 nM | 100 to 500 nM | < 100 nM | < 100 nM | – | – |
| CC(C)C[C@H](NC(=O)c1ccc2[nH]nc(-c3ccc(N4[C@@H]5CCC[C@H]4COC5)cc3)c2c1)c1ccccc1Cl [Example A417, 3-(4-((1R,5S)-3-oxa-9-azabicyclo[3.3.1]nonan-9-yl)phenyl)-N-((S)-(2-chlorophenyl)-3-methylbutyl)-1 H-indazole-5-carboxamide] | < 100 nM | 100 to 500 nM | 100 to 500 nM | 100 to 500 nM | – | – |
| O=CN1C2CCC1CC(Oc1ccc(-c3n[nH]c4ccc(C(=O)N[C@H](c5ccccn5)C5CCCC5)cc34)cc1)C2 (stereo partly drawn) [Example A348, N-((S)-cyclopentyl(pyridin-2-yl)methyl)-3-(4-(((1R,3R,5S)-8-formyl-8-azabicyclo[3.2.1]octan-3-yl)oxy)phenyl)-1H-indazole-5-carboxamide] | < 100 nM | < 100 nM | < 100 nM | < 100 nM | – | – |
| O=C(N[C@H](c1ccccn1)C1CCCC1)c1ccc2[nH]nc(-c3ccc(N4C5CCC4CC(O)C5)cc3)c2c1 (some centres unmarked) [Example A513] | < 100 nM | < 100 nM | – | – | – | – |
| CC(C)[C@H](NC(=O)c1ccc2[nH]nc(-c3ccc(N4C5CCC4CC(O)C5)cc3)c2c1)c1ccccc1Cl (stereo partly drawn) [Example A514, N-((S)-1-(2-chlorophenyl)-2-methylpropyl)-3-(4-((1R,3R,5S)-3-hydroxy-8-azabicyclo[3.2.1]octan-8-yl)phenyl)-1H-indazole-5-carboxamide] | < 100 nM | < 100 nM | – | – | – | – |
| O=C(NCC1(CN2CCOCC2)CC1)c1ccc2[nH]nc(-c3ccc(N4CCOCC4)cc3)c2c1 [Example A494, N-((1-(morpholinomethyl)cyclopropyl)methyl)-3-(4-morpholinophenyl)-1H-indazole-5-carboxamide] | < 100 nM | – | – | – | > 500 nM | > 500 nM |
